This assay concerns the target T1, human CRHR2 (Homo sapiens, UniProt Q13324).
T1 construct: expressed in transfected cells
T1 sequence (Q13324 1-411): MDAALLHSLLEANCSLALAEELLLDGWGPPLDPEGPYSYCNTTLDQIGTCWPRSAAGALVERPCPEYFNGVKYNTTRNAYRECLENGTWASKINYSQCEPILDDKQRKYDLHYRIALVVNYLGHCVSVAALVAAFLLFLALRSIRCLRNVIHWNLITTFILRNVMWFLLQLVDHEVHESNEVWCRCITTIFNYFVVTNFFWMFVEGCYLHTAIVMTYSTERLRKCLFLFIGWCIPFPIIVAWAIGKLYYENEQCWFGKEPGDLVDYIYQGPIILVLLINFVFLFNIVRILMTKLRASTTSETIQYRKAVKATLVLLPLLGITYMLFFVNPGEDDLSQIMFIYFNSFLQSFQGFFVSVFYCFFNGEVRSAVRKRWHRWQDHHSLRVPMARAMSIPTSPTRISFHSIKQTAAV
Put plainly: cAMP assay, h-CRHR2 transfected SK-N-MC cells. The following applies: Table 13; for EC50: cysteine mutation, N-ethylmaleimide capping, pegylation, read-out: pA50 (converted); for Log DR [M]: h-SCP control pA50 minus test compound pA50 within the same assay batch. Type of assay: cell-based. The protocol: The concentration required for 50% maximum effect (A50) was 0.4 nM.
Human CRHR1 (accession number X72304) or CRHR2 (accession number U34587) were cloned into pcDNA3.1/Zeo expression vector and stably transfected into SK—N-MC cells by electroporation. Cells were maintained in MEM w/Earl's Salt with 10% FBS, 50 I.U. penicillin, 50 μg/ml streptomycin, 2 mM L-glutamine, 1 mM sodium pyruvate and 0.1 mM non-essential amino acids, 600 μg/ml G418. Cells were grown at 37° C. in 5% CO2
Cells were plated in 96-well tissue culture dishes (Biocoat from BD Biosciences) overnight at 50,000 cell/well. Cells were washed with PBS then resuspended in DMEM F-12 without phenol red, containing 10 μM isobutylmethylxanthine (IBMX). Cells were incubated with the peptides at concentrations ranging from 1 pM to 10 μM for 60 min at 37° Celsius. […] Forskolin (10 μM), a direct stimulant of adenylate cyclase, was used as positive control. The assays were stopped by the addition of 0.5 M HCl and mixing by orbital rotation for 2 h at 4° Celsius.
To assess the activity of the inventive polypeptide at the CRHR2, an intracellular cAMP measurement test using a Flash plate radioactive assay (Catalog No. Cus56088; Perkin Elmer, Mass., U.S.A.) was employed.
Transfected SK—N-MC cells were plated in 96-well Biocoat tissue culture dishes (BD Biosciences, San Jose, Calif., U.S.A) overnight at 50,000 cell/well. Cells were first washed with PBS and then suspended with DMEM/F-12 without phenol red, containing […]. Suspended cells were transferred into a 96-well flash plate coated with scintillant fluid. Cells were incubated with peptides ranging from 1 pM to 1 μM, for 60 min, at 37° Celsius. Forskolin at 10 μM was used as positive control. After ligand stimulation, cells were lysed by the addition of 0.5M HCl and mixed by orbital rotation for 2 h at 4° Celsius in order to release intracellular cAMP into the media.
Media containing released intracellular cAMP was transferred to a 96-well flash plate coated with scintillant fluid containing an anti-cAMP antibody. In this assay, intracellular cAMP competes with ^125I-labeled cAMP binding to the antibody. To generate a standard curve, cAMP ranging from 2.5 to 250 pmoles/ml was included in the experiment. [^125I]-cAMP was measured on a TopCount scintillation counter (Perkin Elmer, Mass., U.S.A).
Individual agonist concentration-response curve data were fitted to the Hill equation, see formula below, using GraphPad Prism (Graphpad Software, La Jolla, Calif., U.S.A.), to provide estimates of agonist concentration needed to generate one-half maximal response (A50), and the maximal asymptote (α) and Hill slope (nH) parameters. In this equation, [A] is the agonist concentration and E is the measured effect:
For display purposes the mean fitted parameter estimates were used to generate a single E/[A] curve shown superimposed on the mean experimental data. Potency estimates for agonists, pA50, are expressed as the negative logarithm of the midpoint of each curve and listed with their standard error of measurement (SEM). Logarithm base 10 of the agonist dose ratio (Log DR) values were calculated by subtraction of the test compound pA50 value from the corresponding h-SCP (SEQ ID NO:1) control pA50 value within the same assay batch. The SEM values of the Log DR values are given by the square root of the sum of the squared SEM values of the h-SCP (SEQ ID NO:1) control and test compound pA50 values.
Human and rat peptides (see Table 10) were used on the stimulation of h-CRHR1 or h-CRHR2 transfected SK—N-MC cells in the cAMP flash plate assay. Peptides were incubated for 1 hr at 37° Celsius. Curves were calculated using non-linear regression sigmoidal concentration-response analysis calculation in GraphPad Prism. The so obtained pA50 values are shown in Table 11 in addition to literature values. […]

Where a SMILES comes first, the peptide text is derived from it. Where no end group is shown, it is not given here. The star is where a group is joined. Succinimide(1-Et,3-yl) = CCN1C(=O)CC(*)C1=O Some results are limits rather than exact numbers.

As to “TKFTLSLDVPTNIMNLLFNIAKAKCLRAQAAANAHLMAQI-NH2 [SEQ ID NO: 26, TKFTLSLDVPTNIMNLLFNIAKAKCLRAQAAANAHLMAQI-NH2]”, the EC50 was 0.363 nM and the “Log DR [M]” value is reported as 0.08.
The like results for “TCFTLSLDVPTNIMNLLFNIAKAKNLRAQAAANAHLMAQI-NH2 [SEQ ID NO: 3, TCFTLSLDVPTNIMNLLFNIAKAKNLRAQAAANAHLMAQI-NH2]” were, in that order, 1.07 nM and 0.72.
As for “TKFTLSLDVPCNIMNLLFNIAKAKNLRAQAAANAHLMAQI-NH2 [SEQ ID NO: 12, TKFTLSLDVPCNIMNLLFNIAKAKNLRAQAAANAHLMAQI-NH2]”, the EC50 was 13.8 nM and the “Log DR [M]” value is 1.72.
As to “TKFTLSLDVPTNIMNLLFNIAKCKNLRAQAAANAHLMAQI-NH2 [SEQ ID NO: 24, TKFTLSLDVPTNIMNLLFNIAKCKNLRAQAAANAHLMAQI-NH2]”, the EC50 is 1.15 nM and the “Log DR [M]” value was found to be 0.74.
With “TKFTLSLDVPTNIMNLLFNIAKAKNLRAQAAACAHLMAQI-NH2 [SEQ ID NO: 34, TKFTLSLDVPTNIMNLLFNIAKAKNLRAQAAACAHLMAQI-NH2]”, the EC50 is approximately 479 nM and the “Log DR [M]” value is more than 3.19.
“TKFTLSLDVPTNIMNLLFNIAKAKNLRAQAAANAHCMAQI-NH2 [SEQ ID NO: 37, TKFTLSLDVPTNIMNLLFNIAKAKNLRAQAAANAHCMAQI-NH2]”: the EC50 is 2.63 nM and the “Log DR [M]” value is given as 1.05.
The corresponding values for `CC[C@H](C)[C@H](NC(=O)[C@H](CCC(N)=O)NC(=O)[C@H](C)NC(=O)[C@H](CCSC)NC(=O)[C@H](CC(C)C)NC(=O)[C@H](Cc1c[nH]cn1)NC(=O)[C@H](C)NC(=O)[C@H](CC(N)=O)NC(=O)[C@H](C)NC(=O)[C@H](CSC1CC(=O)N(CC)C1=O)NC(=O)[C@H](C)NC(=O)[C@H](CCC(N)=O)NC(=O)[C@H](C)NC(=O)[C@H](CCCNC(=N)N)NC(=O)[C@H](CC(C)C)NC(=O)[C@H](CC(N)=O)NC(=O)[C@H](CCCCN)NC(=O)[C@H](C)NC(=O)[C@H](CCCCN)NC(=O)[C@H](C)NC(=O)[C@@H](NC(=O)[C@H](CC(N)=O)NC(=O)[C@H](Cc1ccccc1)NC(=O)[C@H](CC(C)C)NC(=O)[C@H](CC(C)C)NC(=O)[C@H](CC(N)=O)NC(=O)[C@H](CCSC)NC(=O)[C@@H](NC(=O)[C@H](CC(N)=O)NC(=O)[C@@H](NC(=O)[C@@H]1CCCN1C(=O)[C@@H](NC(=O)[C@H](CC(=O)O)NC(=O)[C@H](CC(C)C)NC(=O)[C@H](CO)NC(=O)[C@H](CC(C)C)NC(=O)[C@@H](NC(=O)[C@H](Cc1ccccc1)NC(=O)[C@H](CCCCN)NC(=O)[C@@H](N)[C@@H](C)O)[C@@H](C)O)C(C)C)[C@@H](C)O)[C@@H](C)CC)[C@@H](C)CC)C(N)=O` (some centres unmarked) [SEQ ID NO: 46, TKFTLSLDVPTNIMNLLFNIAKAKNLRAQAC(-NES)ANAH LMAQI-NH2] (H-TKFTLSLDVPTNIMNLLFNIAKAKNLRAQAC(Succinimide(1-Et,3-yl))ANAHLMAQI-NH2; N-terminus assumed) are 0.372 nM and 0.04.
The corresponding values for “H-TKFTLSLDVPTNIMNLLCNIAKAKNLRAQAAANAHLMAQI-NH2 [SEQ ID NO: 19, TKFTLSLDVPTNIMNLLCNIAKAKNLRAQAAANAHLMAQI-NH2]” are 9.77 nM and 1.67.
The corresponding values for `CC[C@H](C)[C@H](NC(=O)[C@H](CCC(N)=O)NC(=O)[C@H](C)NC(=O)[C@H](CCSC)NC(=O)[C@H](CC(C)C)NC(=O)[C@H](Cc1c[nH]cn1)NC(=O)[C@H](C)NC(=O)[C@H](CSC1CC(=O)N(CC)C1=O)NC(=O)[C@H](C)NC(=O)[C@H](C)NC(=O)[C@H](C)NC(=O)[C@H](CCC(N)=O)NC(=O)[C@H](C)NC(=O)[C@H](CCCNC(=N)N)NC(=O)[C@H](CC(C)C)NC(=O)[C@H](CC(N)=O)NC(=O)[C@H](CCCCN)NC(=O)[C@H](C)NC(=O)[C@H](CCCCN)NC(=O)[C@H](C)NC(=O)[C@@H](NC(=O)[C@H](CC(N)=O)NC(=O)[C@H](Cc1ccccc1)NC(=O)[C@H](CC(C)C)NC(=O)[C@H](CC(C)C)NC(=O)[C@H](CC(N)=O)NC(=O)[C@H](CCSC)NC(=O)[C@@H](NC(=O)[C@H](CC(N)=O)NC(=O)[C@@H](NC(=O)[C@@H]1CCCN1C(=O)[C@@H](NC(=O)[C@H](CC(=O)O)NC(=O)[C@H](CC(C)C)NC(=O)[C@H](CO)NC(=O)[C@H](CC(C)C)NC(=O)[C@@H](NC(=O)[C@H](Cc1ccccc1)NC(=O)[C@H](CCCCN)NC(=O)[C@@H](N)[C@@H](C)O)[C@@H](C)O)C(C)C)[C@@H](C)O)[C@@H](C)CC)[C@@H](C)CC)C(N)=O` (some centres unmarked) [SEQ ID NO: 44, TKFTLSLDVPTNIMNLLFNIAKAKNLRAQAAAC(-NES)AH LMAQI-NH2] (H-TKFTLSLDVPTNIMNLLFNIAKAKNLRAQAAAC(Succinimide(1-Et,3-yl))AHLMAQI-NH2) are approximately 31.6 nM and approximately 1.97.
As for “TKFCLSLDVPTNIMNLLFNIAKAKNLRAQAAANAHLMAQI-NH2 [SEQ ID NO: 5, TKFCLSLDVPTNIMNLLFNIAKAKNLRAQAAANAHLMAQI-NH2]”, the EC50 is 1.17 nM and the “Log DR [M]” value is listed as 0.76.
The like results for `CC[C@H](C)[C@H](NC(=O)[C@H](CCC(N)=O)NC(=O)[C@H](C)NC(=O)[C@H](CCSC)NC(=O)[C@H](CC(C)C)NC(=O)[C@H](CSC1CC(=O)N(CC)C1=O)NC(=O)[C@H](C)NC(=O)[C@H](CC(N)=O)NC(=O)[C@H](C)NC(=O)[C@H](C)NC(=O)[C@H](C)NC(=O)[C@H](CCC(N)=O)NC(=O)[C@H](C)NC(=O)[C@H](CCCNC(=N)N)NC(=O)[C@H](CC(C)C)NC(=O)[C@H](CC(N)=O)NC(=O)[C@H](CCCCN)NC(=O)[C@H](C)NC(=O)[C@H](CCCCN)NC(=O)[C@H](C)NC(=O)[C@@H](NC(=O)[C@H](CC(N)=O)NC(=O)[C@H](Cc1ccccc1)NC(=O)[C@H](CC(C)C)NC(=O)[C@H](CC(C)C)NC(=O)[C@H](CC(N)=O)NC(=O)[C@H](CCSC)NC(=O)[C@@H](NC(=O)[C@H](CC(N)=O)NC(=O)[C@@H](NC(=O)[C@@H]1CCCN1C(=O)[C@@H](NC(=O)[C@H](CC(=O)O)NC(=O)[C@H](CC(C)C)NC(=O)[C@H](CO)NC(=O)[C@H](CC(C)C)NC(=O)[C@@H](NC(=O)[C@H](Cc1ccccc1)NC(=O)[C@H](CCCCN)NC(=O)[C@@H](N)[C@@H](C)O)[C@@H](C)O)C(C)C)[C@@H](C)O)[C@@H](C)CC)[C@@H](C)CC)C(N)=O` (some centres unmarked) [SEQ ID NO: 43, TKFTLSLDVPTNIMNLLFNIAKAKNLRAQAAANAC(-NES) LMAQI-NH2] (H-TKFTLSLDVPTNIMNLLFNIAKAKNLRAQAAANAC(Succinimide(1-Et,3-yl))LMAQI-NH2) were, in that order, 0.162 nM and −0.32.
The corresponding values for “TKFTLSLDVPTNIMNLCFNIAKAKNLRAQAAANAHLMAQI-NH2 [SEQ ID NO: 18, TKFTLSLDVPTNIMNLCFNIAKAKNLRAQAAANAHLMAQI-NH2]” are 3.89 nM and 1.11.
The like results for “TKFTLSLDVPTNIMNLLFCIAKAKNLRAQAAANAHLMAQI-NH2 [SEQ ID NO: 20, TKFTLSLDVPTNIMNLLFCIAKAKNLRAQAAANAHLMAQI-NH2]” were, in that order, 1 nM and 0.52.
